Here are results for 5 molecules from patent US8063042B2, “Heterocyclic compounds” (Hoffmann-La Roche Inc., priority 2007, dated 2011).

The target in this assay is T1, human chemokine receptor 2 isoform B (Homo sapiens, UniProt P41597).
T1 construct: host or cells: CHOK1-CCR2B-A5 (CHO-K1) cells
T1 sequence (P41597 1-360 isoform P41597-2): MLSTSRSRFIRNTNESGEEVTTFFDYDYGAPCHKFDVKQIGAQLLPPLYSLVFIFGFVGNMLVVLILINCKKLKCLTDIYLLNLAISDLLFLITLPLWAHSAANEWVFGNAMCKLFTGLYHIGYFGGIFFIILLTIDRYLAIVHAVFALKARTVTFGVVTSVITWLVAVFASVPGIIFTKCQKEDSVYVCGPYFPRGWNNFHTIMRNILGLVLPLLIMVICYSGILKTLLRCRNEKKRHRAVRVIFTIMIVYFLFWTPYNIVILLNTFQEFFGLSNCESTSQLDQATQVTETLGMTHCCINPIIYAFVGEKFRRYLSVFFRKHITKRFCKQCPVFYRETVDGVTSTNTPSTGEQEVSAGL
Nature of the assay: Calcium mobilization assay. It counts as cell-based. The following applies: Ca mobilisation assay for CCR2; CHOK1-CCR2B-A5 cells; antagonist activity against 20 nM MCP-1. As to the method:
Calcium Mobilization Assay
CHOK1-CCR2B-A5 cells (from Euroscreen) stably overexpressing the human chemokine receptor 2 isoform B were cultured in Nutrient Hams F12 medium supplemented with 5% FBS, 100 U/ml penicillin, 100 μg/ml streptomycin, 400 μg/ml G418 and 5 μg/ml puromycin. For the assay cells were grown overnight in 384-well black clear flat bottom polystyrene plates (Costar) at 37° C. at 5% CO2. After washing with DMEM, 20 mM Hepes, 2.5 mM probenecid, 0.1% BSA (DMEM assay buffer) cells were loaded with 4 μM Fluo-4 in the same DMEM assay buffer for 2 hours at 30° C. Excess dye was removed and cells were washed with DMEM assay buffer. 384-well compound plates were prepared with DMEM assay buffer/0.5% DMSO with or without various concentrations of test compounds. Usually compounds were tested for agonist and antagonist activity.
Test compounds were added to the assay plate and agonist activity was monitored as fluorescence for 80 seconds with a FLIPR (488 nm excitation; 510-570 nm emission; Molecular Devices). After 20-30 min. of incubation at 30° C., 20 nM MCP-1 (R&D; Roche) was added and fluorescence was monitored again for 80 seconds. Increases in intracellular calcium are reported as maximum fluorescence after agonist exposure minus basal fluorescence before exposure. Antagonist activity is indicated as inhibitor concentration required for 50% inhibition of specific calcium increases.
With `O=C(/C=C/c1ccc(Cl)c(Cl)c1)N1CCN(CCCN2CCC(O)CC2)C(=O)C1` [Example 11, 4-[(E)-3-(3,4-Dichloro-phenyl)-acryloyl]-1-[3-(4-hydroxy-piperidin-1-yl)-propyl]-piperazin-2-one], the IC50 is 284 nM. Turning to `O=C(/C=C/c1ccc(Cl)c(Cl)c1)N1CCN(CCCN2CCC(CO)C2)C(=O)C1` (centres unmarked) [Example 14, 4-[(E)-3-(3,4-Dichloro-phenyl)-acryloyl]-1-[3-(3-hydroxymethyl-pyrrolidin-1-yl)-propyl]-piperazin-2-one], the IC50 amounted to 307 nM. Regarding `CC1C(=O)N(CCCN2CCC3(CC3)[C@H](O)C2)CCN1C(=O)/C=C/c1ccc(Cl)c(F)c1` (stereo partly drawn) [Example 39, 4-[(E)-3-(4-Chloro-3-fluoro-phenyl)-acryloyl]-1-[3-((S)-4-hydroxy-6-aza-spiro[2,5]oct-6-yl)-propyl]-3-methyl-piperazin-2-one], the IC50 was 13.7 nM. With `CC1C(=O)N(CCCN2CCCC2)CCN1C(=O)/C=C/c1ccc(Cl)c(Cl)c1` (centres unmarked) [Example 15, 4-[(E)-3-(3,4-Dichloro-phenyl)-acryloyl]-3-methyl-1-(3-pyrrolidin-1-yl-propyl)-piperazin-2-one] the figure was 76.5 nM; with `O=C(/C=C/c1ccc(Cl)c(Cl)c1)N1CCN(CCCN2CCCCC2)S(=O)(=O)C1` [Example 34, (E)-3-(3,4-Dichloro-phenyl)-1-[1,1-dioxo-2-(3-piperidin-1-yl-propyl)-[1,2,5]thiadiazinan-5-yl]-propenone], 202 nM.
